From patent publication US9408828B2, “(+)-3′-angeloyloxy-4′-keto-3′,4′-dihydroseselin for treating inflammation” (Hong Kong Baptist University, priority 2014, dated 2016) come the findings set out here.

Test [1] concerns TNF-α. The test is described as follows: Real-time PCR of TNF-α mRNA in LPS-stimulated RAW-Blue cells. It is filed as cell-based, murine. The conditions noted are these: LPS 1 μg/mL, 5, 10, 20 μg/mL, 20 hours. The procedure: After macrophages are treated with 1 μg/mL of LPS in absence or presence various concentrations of Pd-Ib (5, 10, 20 μg/mL) for 20 hours, the mRNA levels of iNOS (A), TNF-α (B) and IL-1β (C) are determined by real time PCR, while the production of NO (D) is determined by Griess reagent. Data are derived from three independent experiments and presented as mean±SEM, “con” stands for the vehicle control group. ^#Compared with control group. *P<0.05, **P<0.01 and ***P<0.001 are compared with LPS-alone group.
Raw-Blue cells are plated at 20×10^5 cells/well in 12-well plate. After 24 hours of incubation, cells are pretreated with various concentrations (5-20 μg/mL) of Pd-Ib for 2 hours, followed by co-culturing with LPS (1 μg/mL) for 20 hours. Total RNA of Raw-Blue cells is extracted by Trizol reagent. Two micrograms (2 μg) of total RNA are reverse-transcribed with RT master mix to obtain cDNA. Real-time PCR is performed in a ViiA7 real-time PCR instrument (Applied Biosystems, Life Technologies, CA, USA) with the SYBR Green kit. A melting curve analysis is carried out after amplification to verify the accuracy of the amplicon. The comparative cycle of threshold (ΔΔCT) method of relative quantification is used to determine the fold-change in expression. Primer sequences for mRNA analysis of IL-1β, TNF-α, iNOS and β-Actin are described in Table 1.
In general terms: In qPCR the cycle at which signal appears reflects the starting amount.

The subject of test [2] is DSS-induced colitis. Nature of the test: Chronic DSS-induced colitis in mice (body weight, DAI, colon length, histology). It is filed as in vivo, C57BL/6 mice. From the text: 6-week-old male C57BL/6 mice weighing 18-20 g are purchased from the Laboratory Animal Services Center, the Chinese University of Hong Kong. The study protocols are approved by the committee for Care of Laboratory Animals in the School of Chinese Medicine at the Hong Kong Baptist University. The animals are divided into six groups (8-10 each group): control group (mice received drinking water and control diet), DSS-treated group (mice received 2.0% DSS in drinking and control diet), positive control group (mice received 2.0% DSS in drinking and ip, 300 mg/kg/day of sulfasalazine), Pd-Ib treatment groups will be given different dosed of Pd-Ib (mice received 2.0% DSS in drinking and i.p., 30, 60, or 120 mg/kg/day, respectively). As depicted in experiment design shown in FIG. 9, the mice are given tap water for 6 days, and then be divided into 6 groups. DSS is dissolved in distilled water at a concentration of 2% (w/v) and administered to the mice. The first day and the last day of DSS treatment are designated as day 7 and day 11, respectively. Mice are marked and checked daily for body weight. On day 12, body weight, stool consistency, and gross bleeding of each mouse are assessed, and animals showing body weight loss, diarrhea, and bleeding are selected for further analysis. All colitis mice are then interventions once daily for seven days, with eight mice in each group. The DSS model group is administered with tap water as negative control; while sulfasalazine is given as positive control (i.p., 300 mg/kg/day) and Pd-Ib treatment groups are given different doses of Pd-Ib (i.p., 30, 60, or 120 mg/kg/day, respectively). In parallel, a vehicle control group is also set up to receive drinking tap water without DSS throughout the entire experimental period. On day 19, after the mice are killed under anesthesia induced by pentobarbital sodium (i.p., 0.65 g/kg), the length of the large intestine is measured. All portions are stored at −80° C. for biochemical assays. The DAI is determined by scoring changes in the body weight, diarrhea, colon length, and bleeding. In brief, body weight, stool consistency, colon length and bleeding in the stool are monitored daily for determination of DAI. At the end of the experiment, mice are killed, and the colon is dissected from each mouse, and the length of which is measured from the ileocecal junction to the anal verge. The colons are opened longitudinally, gently washed with ice-cold PBS, fixed in 4% paraformaldehyde overnight, and embedded in paraffin. Five-micro-meter sections are stained with hematoxylin/eosin according to a standard procedure to evaluate colonic damage. Colitis is induced in all groups except the control group. Pd-Ib and sulfasalazine are administered to mice from day 6 to day 12. The change in body weight is taken as the difference between the body weight before induction of colitis and that immediately before sacrifice on day 13. The DAI score is determined by combining scores of (i) body weight loss, (ii) stool consistency, and (iii) stool bleeding. On day 13, the mice are sacrificed, and the colon lengths are measured. Data are expressed as mean±SEM, n=8 (^###p<0.001, compared with the control group; *p<0.05, **p<0.01, ***p<0.001, compared with DSS model group).

For test [3], the system named is IL-6. Nature of the test: ELISA of IL-6 in colon tissue, DSS-induced colitis. It is filed as in vivo, C57BL/6 mice. The conditions noted are these: compared with the DSS treatment group. The procedure: Colon levels of cytokines are assayed using commercially available ELISA kits. Briefly, colon samples are homogenized in phosphate buffer containing 0.05% Tween-20, 0.1 mM phenylmethylsulfonyl fluoride, 0.1 mM benzethonium chloride, 10 mM EDTA, and 20 IU aprotinin A. The homogenates are centrifuged at 16000 g at 4° C. for 15 min, and the supernatants are collected for the determination of levels of the cytokines, IL-6, IL-4, TNF-α, and IFN-γ, according to the manufacturer's protocols. The amount of protein in each sample is measured by the Bradford method, using bovine serum albumin as a standard. The levels of each cytokine are evaluated in each sample and expressed in […].
Colitis is induced in all groups except the control group. Pd-Ib and sulfasalazine are administered to mice from day 6 to day 12. On day 13, the mice are sacrificed, Data are expressed as mean±SEM, n=8 (*p<0.05, **p<0.01, ***p<0.001, compared with DSS model group).
A general note: ELISA stands for enzyme-linked immunosorbent assay.

Take `C/C=C(\C)C(=O)OC1C(=O)c2c(ccc3ccc(=O)oc23)OC1(C)C` (single isomer, unassigned; (+)) [Pd-Ib, (+)-3′-Angeloyloxy-4′-keto-3′,4′-dihydroseselin]: the “mRNA expression of TNF-α” value in test [1] was “inhibit the mRNA expressions of TNF-α and IL-1β in a dose-dependent manner”. In addition, the body weight loss result was “mildly effective in preventing body weight loss” in test [2] (30 mg/kg/day); “mildly effective in preventing body weight loss” in test [2] (60 mg/kg/day); “recover the body weight loss significantly” in test [2] (120 mg/kg/day, compared with DSS model group after 10 days (p<0.05)). The DAI score result in test [2] (120 mg/kg/day, versus untreated mice (p<0.05)) was “significantly lower”. Moreover, the “shortening of colon length” value in test [2] (30, 60, 120 mg/kg/day (p<0.05, p<0.001)) is listed as “rectified after administration with Pd-Ib at indicated concentration levels in a dose-dependent manner”. Further, the “histological manifestation of colon tissue sections” value in test [2] (30, 60, 120 mg/kg/day for seven days, compared with DSS group) is “far fewer infiltrating cells, a significantly lower degree of mucosal injury, and less edema”. Besides, in test [3], the “production of IL-6 in colon tissue” value is on record as “greatly reduces the production”.
